The target of one series is ETA receptor. Conditions: read-out: IC50, inhibition of 125I-labelled endothelin-1 binding, cited from earlier work.
The subject of another series is ETB receptors. Conditions: concentrations up to 100 μM; cited from earlier work.
In the next series the test system is isolated vascular strips. Conditions: read-out: EC50, contractile agent; cited from earlier work.
The target of another series is T1, human ETA receptors (Homo sapiens, UniProt P25101).
T1 construct: endogenous in cells; host or cells: TE 671 cells (ATCC HTB 139), membrane preparation
T1 sequence (P25101 21-427): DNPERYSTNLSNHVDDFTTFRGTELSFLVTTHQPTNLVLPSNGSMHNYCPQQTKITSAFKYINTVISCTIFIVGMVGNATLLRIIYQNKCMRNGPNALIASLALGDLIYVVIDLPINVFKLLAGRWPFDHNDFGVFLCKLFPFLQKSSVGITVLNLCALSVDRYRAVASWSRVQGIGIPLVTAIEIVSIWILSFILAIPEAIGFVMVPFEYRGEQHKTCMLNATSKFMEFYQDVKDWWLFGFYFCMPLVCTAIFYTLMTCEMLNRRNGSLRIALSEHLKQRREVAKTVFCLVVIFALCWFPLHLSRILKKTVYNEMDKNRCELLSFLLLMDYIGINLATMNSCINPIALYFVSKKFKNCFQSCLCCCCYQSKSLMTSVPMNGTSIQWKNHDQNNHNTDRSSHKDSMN
As to the kind of experiment: Endothelin binding inhibition, Binding Test #1: inhibition of binding to ETA receptors (TE 671 cell membranes). Conditions: relative to N-(4-chloro-3-methyl-5-isoxazolyl)-2-{[3,4-(methylenedioxy)-6-methylphenyl)acetyl]-thiophene-3-sulfonamide (= 1.0). The source says:
(§1) Compounds that are potential endothelin antagonists are identified by testing their ability to compete with ^125I-labeled ET-1 for binding to human ETA receptors or ETB receptors present on isolated cell membranes. The effectiveness of the test compound as an antagonist or agonist of the biological tissue response of endothelin can also be assessed by measuring the effect on endothelin induced contraction of isolated rat thoracic aortic rings. The ability of the compounds to act as antagonists or agonists for ETB receptors can be assess by testing the ability of the compounds are to inhibit endothelin-1 induced prostacyclin release from cultured bovine aortic endothelial cells.
(§2) A. Endothelin Binding Inhibition—Binding Test #1: Inhibition of Binding to ETA Receptors
(§3) TE 671 cells (ATCC Accession No. HTB 139) express ETA receptors. These cells were grown to confluence in T-175 flasks. Cells from multiple flasks were collected by scraping, pooled and centrifugedfor 10 min at 190×g. The cells were resuspended in phosphate buffered saline (PBS) containing 10 mM EDTA using a Tenbroeck homogenizer. The suspension was centrifuged at 4° C. at 57,800×g for 15 min, the pellet was resuspended in 5 ml of buffer A (5 mM HEPES buffer, pH 7.4 containing aprotinin (100 KIU/ml)) and then frozen and thawed once. 5 ml of Buffer B (5 mM HEPES Buffer, pH 7.4 containing 10 mM MnCl2 and 0.001% deoxyribonuclease Type 1) was added, the suspension mixed by inversion and then incubated at 37° C. for 30 minutes. The mixture was centrifuged at 57,800×g as described above, the pellet washed twice with buffer A and then resuspended in buffer C (30 mM HEPES buffer, pH 7.4 containing aprotinin (100 KIU/ml) to give a final protein concentration of 2 mg/ml and stored at −70° C. until use.
(§4) The membrane suspension was diluted with binding buffer (30 mM HEPES buffer, pH 7.4 containing 150 mM NaCl, 5 mM MgCl2, 0.5% Bacitracin) to a concentration of 8 μg/50 μl. ^125I-endothelin-1 (3,000 cpm, […]) was added to 50 μL of either: (A) endothelin-1 (for non specific binding) to give a final concentration 80 nM); (B) binding buffer (for total binding); or (C) a test compound (final concentration 1 nM to 100 μM). The membrane suspension (50 μL), containing up to 8 μg of membrane protein, was added to each of (A), (B), or (C). Mixtures were shaken, and incubated at 4° C. for 16-18 hours, and then centrifuged at 4° C. for 25 min at 2,500×g. Alternatively, the incubation was conducted at 24° C. […] This, must be kept in mind when comparing IC50 concentrations among compounds provided herein.
(§5) The supernatant, containing unbound radioactivity, was decanted and the pellet counted on a Genesys multiwell gamma counter. The degree of inhibition of binding (D) was calculated according to the following equation: [formula]
Each test was generally performed in triplicate.

Series [1] relates to ETA receptors and ETB receptors. Kind of series: Endothelin binding inhibition, ETA (TE 671) and ETB (transfected COS7) receptors: selectivity. Also on record: species or system human. Conditions: antagonism of ETA receptors over ETB receptors.
Text: as §1, §2, §3, §4, §5
B. Endothelin Binding Inhibition—Binding Test #2: Inhibition of Binding to ETB Receptors
COS7 cells were transfected with DNA encoding the ETB receptor, The resulting cells, which express the human ETB receptor, were grown to confluence in T-150 flasks. Membrane was prepared as described above. The binding assay was performed as described above using the membrane preparation diluted with binding buffer to a concentration of 1 μg/50 μl.
Briefly, the COS7 cells, described above, that had been transfected with DNA encoding the ETB receptor and express the human ETB receptor on their surfaces were grown to confluence in T-175 flasks. […]

The nature of series [2]: Pharmacokinetic properties (oral availability, elimination half-life, Cmax). The series is classed as in vivo. The text has this:
As used herein, bioavailability or oral availability refers to the rate and extent of absorption. Methods for determining bioavailability or oral availability are well known to those of skill in the art. For example, bioavailability or oral availability of any of the compounds described herein can be determined empirically by administration of the compound to an animal, followed by taking blood samples over time and measuring the blood concentration of the compound. In vivo half life (t1/2) is defined as the time it takes for the concentration of the compound in the blood to be reduced by one-half. Estimations of the area under the curve for intravenous administration can be used to estimate the area under the curve for oral administration, yielding bioavailability data. See, e.g., Milo Gibal (1991) Biopharmaceutics and Pharmacology, 4th edition (Lea and Sediger).

Read-outs that look alike come from different tables or passages of the source.

Take “cyclo(D-Glu-L-Ala-allo-D-Ile-L-Leu-D-Trp) [BE-18257B]”: the figures for the IC50 on ETA receptor (aortic smooth muscle), at ETA receptor (cultured aortic smooth muscle cells) and on ETA receptor (ventricle membranes) were 1400 nM, 500 nM and 800 nM, respectively. For the same molecule, in the series on ETB receptors, the “inhibition of binding to receptors in tissues in which ETB receptors predominate” value is recorded as “fails to inhibit binding”.

For the molecule “endothelin-1: potent twenty-one amino acid peptide vasoconstrictor”, the EC50 in the series on isolated vascular strips was 0.4 nM.

The molecule `Cc1nc(C)c(NC(=O)c2sccc2S(=O)(=O)Nc2onc(C)c2Cl)c(C)n1` [Compound 28, 3-{[(4-chloro-3-methyl-5-isoxazolyl)amino]sulfonyl}-N-(2,4,6-trimethyl-5-pyrimidinyl)-2-thiophenecarboxamide] registered a melting point of 170 to 175 °C. For the same molecule, the “ETA ACTIVITY (ETA antagonist activity relative to reference compound)” value at human ETA receptors came to 2.0.

`Cc1cc(C)c(NC(=O)c2sccc2S(=O)(=O)Nc2onc(C)c2Cl)c(-c2ncco2)c1` [Compound 44, 3-{[(4-chloro-3-methyl-5-isoxazolyl)amino]sulfonyl}-N-[2,4-dimethyl-6-(1,3-oxazol-2-yl)phenyl]-2-thiophenecarboxamide] showed a melting point of 176 to 178 °C. On human ETA receptors, the “ETA ACTIVITY (ETA antagonist activity relative to reference compound)” value amounted to 17.9. Besides, the “Selectivity (IC50 for ETB/IC50 for ETA)” value in series [1] is 119,000. Also, the half-life in series [2] (blood, read-out: t½ elim. (converted)) was 5.3 h. This molecule showed a Cmax in series [2] (in vivo) of 66 µg/mL.

A word on the IC50: it is the concentration at which inhibition is half-maximal. The term EC50 denotes the concentration giving half of the maximal effect. As usually defined, the melting point is the temperature, or range, at which the solid turns liquid. The term Cmax denotes the highest concentration seen after dosing.

Values taken from US6686382B2, “Sulfonamides and derivatives thereof that modulate the activity of endothelin” (Encysive Pharmaceuticals Inc., priority 1999, dated 2004).
